Assay results published in PMC7083880 (Nature Communications, 2020).
Several values for one entry are separate records, joined by “and”; a condition that tells them apart may be missing. Identical values can stand only once.

Key:
[1] = tested on: p53-null 4T1 cell tumors in nude mice; assay: In vivo tumor growth, 4T1 cells in nude mice; parameters: species or system mouse
Description: (§1) For each experimental condition, 7 mice were used. b Fourteen nude mice were injected with Calu-6 cells to promote tumor development. […] The arrow indicates the starting time of the exposure to DMSO or DAP. For each experimental condition, 7 mice were used. […] GAPDH was used as loading control. A molecular weight marker is indicated to the left of the gel. The results presented in this figure are representative of two independent experiments. p-values (p) were calculated using Student’s t-test. Source data are provided as a Source Data file.
(§2) Next, the capacity of DAP to correct UGA nonsense mutations in vivo was assessed in a mouse model. Four-week-old immunodeficient nude mice were injected with an identical number of Calu-6 cells carrying a UGA nonsense mutation in the TP53 gene, of HCC-GR6 cells having a wild-type TP53 gene or of p53-null 4T1 cells. […] The slower growth of Calu-6-cell-derived tumors in DAP-treated mice is thus likely due to rescue of p53 protein synthesis in these tumors, as expected on the basis of our cell culture experiments and as observed after western-blotting applied to protein extracts of tumors from DAP-treated mice (Supplementary Fig. 8B). Because of the small size of the Calu-6 tumors in DAP-treated mice and thus the high probability of collecting mouse cells upon tumor excision, quantitation of p53 was done in another experiment.
(§3) To initiate tumor growth, 6-week-old nude mice received subcutaneously 10 million cells suspended in PBS. […] Tumors were measured three times weekly for 5 weeks to determine the tumor volume by the following formula: l (mm) × L (mm) × L (mm). The tumors were then collected and a fraction was used for western blot analysis after protein extraction. All in vivo experiments complied with all relevant ethical regulations for animal testing and research and were authorized by the Ethic Committee 075 under the number 12971-2018010815336092.

[2] = tested on: Calu-6 cell tumors in nude mice; assay: In vivo established Calu-6 tumors: tumor size and p53 western blot; parameters: species or system mouse
Description: as §1, §2, §3

## Nc1nc(N)c2[nH]cnc2n1 [DAP, 2,6-diaminopurine]
[1]; 4T1, day 4, average of 7 mice
  tumor size, Average: 0.036
[1]; 4T1, day 4, mice 1-7
  tumor size, individual mice: 0.048 and 0.027
[1]; 4T1, day 6, average of 7 mice
  tumor size, Average: 0.08071
[1]; 4T1, day 6, mice 1-7
  tumor size, individual mice: 0.125 and 0.064 and 0.1 and 0.048
[1]; 4T1, day 8, average of 7 mice
  tumor size, Average: 0.09843
[1]; 4T1, day 8, mice 1-7
  tumor size, individual mice: 0.125 and 0.1 and 0.064
[1]; 4T1, day 11, average of 7 mice
  tumor size, Average: 0.1407
[1]; 4T1, day 11, mice 1-7
  tumor size, individual mice: 0.18 and 0.125
[1]; 4T1, day 13, average of 7 mice
  tumor size, Average: 0.227
[1]; 4T1, day 13, mice 1-7
  tumor size, individual mice: 0.294 and 0.18 and 0.245 and 0.216
[1]; 4T1, day 15, average of 7 mice
  tumor size, Average: 0.401
[1]; 4T1, day 15, mice 1-7
  tumor size, individual mice: 0.448 and 0.567 and 0.294 and 0.343
[1]; 4T1, day 18, average of 7 mice
  tumor size, Average: 0.6964
[1]; 4T1, day 18, mice 1-7
  tumor size, individual mice: 0.648 and 0.8 and 0.567 and 0.9 and 0.512
[1]; 4T1, day 20, average of 7 mice
  tumor size, Average: 0.9223
[1]; 4T1, day 20, mice 1-7
  tumor size, individual mice: 0.9 and 0.968 and 0.8 and 1.44 and 0.648
[1]; 4T1, day 22, average of 7 mice
  tumor size, Average: 1.032
[1]; 4T1, day 22, mice 1-7
  tumor size, individual mice: 0.9 and 0.968 and 0.8 and 1.859
[1]; 4T1, day 25, average of 7 mice
  tumor size, Average: 1.344
[1]; 4T1, day 25, mice 1-7
  tumor size, individual mice: 1.089 and 1.44 and 1 and 2.7
[1]; 4T1, day 27, average of 7 mice
  tumor size, Average: 1.752
[1]; 4T1, day 27, mice 1-7
  tumor size, individual mice: 1.69 and 1.859 and 1.44 and 1.584 and 1.21 and 3.15 and 1.331
[1]; 4T1, day 29, average of 7 mice
  tumor size, Average: 2.057
[1]; 4T1, day 29, mice 1-7
  tumor size, individual mice: 1.69 and 2.028 and 1.859 and 1.584 and 4.046 and 1.331
[1]; 4T1, day 32, average of 7 mice
  tumor size, Average: 2.639
[1]; 4T1, day 32, mice 1-7
  tumor size, individual mice: 2.156 and 2.7 and 2.028 and 5.184 and 2.352
[1]; 4T1, day 34, average of 7 mice
  tumor size, Average: 3.227
[1]; 4T1, day 34, mice 1-7
  tumor size, individual mice: 2.925 and 2.548 and 2.744 and 5.776
[1]; 4T1, day 36, average of 7 mice
  tumor size, Average: 3.574
[1]; 4T1, day 36, mice 1-7
  tumor size, individual mice: 2.925 and 3.15 and 7.2 and 2.744
[1]; 4T1, nude mice, force-fed daily, 5 weeks
  Tumor growth vs DMSO, in words: no significant difference in tumor growth
[2]; measure 1 of 10 (time not given), DAP started when tumors about 0.4 cm^3
  Tumor size, average of 7 mice: 0.002 cm^3
[2]; measure 2 of 10 (time not given)
  Tumor size, average of 7 mice: 0.02357 cm^3
[2]; measure 3 of 10 (time not given)
  Tumor size, average of 7 mice: 0.05086 cm^3
[2]; measure 4 of 10 (time not given)
  Tumor size, average of 7 mice: 0.07071 cm^3
[2]; measure 5 of 10 (time not given)
  Tumor size, average of 7 mice: 0.1153 cm^3
[2]; measure 6 of 10 (time not given)
  Tumor size, average of 7 mice: 0.1741 cm^3
[2]; measure 7 of 10 (time not given)
  Tumor size, average of 7 mice: 0.2344 cm^3
[2]; measure 8 of 10 (time not given)
  Tumor size, average of 7 mice: 0.3563 cm^3
[2]; measure 9 of 10 (time not given)
  Tumor size, average of 7 mice: 0.4617 cm^3
[2]; measure 10 of 10 (time not given)
  Tumor size, average of 7 mice: 0.5429 cm^3
